Experiment [1] deals with NA from Virus H5N1 (soluble viral NA, N1) (Influenza A virus, UniProt Q6DPL2). Nature of the experiment: biochemical. The following applies: IC50 inhibition of soluble NA from Virus H5N1.
Experiment [2] concerns the target NA from Virus H3N2 (soluble viral NA, N2) (Influenza A virus, UniProt Q91MA2). In words: biochemical. The following applies: IC50 inhibition of soluble NA from Virus H3N2.

NA from Virus H3N2 (soluble viral NA, N2), sequence (Q91MA2 31-469 limits assumed): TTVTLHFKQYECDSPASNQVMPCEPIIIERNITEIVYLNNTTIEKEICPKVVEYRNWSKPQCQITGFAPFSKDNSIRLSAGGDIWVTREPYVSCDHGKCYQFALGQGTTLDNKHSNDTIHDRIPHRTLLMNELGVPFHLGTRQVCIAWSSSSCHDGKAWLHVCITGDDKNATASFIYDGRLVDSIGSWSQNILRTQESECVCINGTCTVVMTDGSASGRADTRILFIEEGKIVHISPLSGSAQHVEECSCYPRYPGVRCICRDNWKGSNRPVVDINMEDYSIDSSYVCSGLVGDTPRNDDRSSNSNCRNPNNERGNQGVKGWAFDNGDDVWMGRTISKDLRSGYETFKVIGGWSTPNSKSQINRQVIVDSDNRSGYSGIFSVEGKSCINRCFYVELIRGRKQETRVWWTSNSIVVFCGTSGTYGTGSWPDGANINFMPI
NA from Virus H5N1 (soluble viral NA, N1), sequence (Q6DPL2 35-449 limits assumed): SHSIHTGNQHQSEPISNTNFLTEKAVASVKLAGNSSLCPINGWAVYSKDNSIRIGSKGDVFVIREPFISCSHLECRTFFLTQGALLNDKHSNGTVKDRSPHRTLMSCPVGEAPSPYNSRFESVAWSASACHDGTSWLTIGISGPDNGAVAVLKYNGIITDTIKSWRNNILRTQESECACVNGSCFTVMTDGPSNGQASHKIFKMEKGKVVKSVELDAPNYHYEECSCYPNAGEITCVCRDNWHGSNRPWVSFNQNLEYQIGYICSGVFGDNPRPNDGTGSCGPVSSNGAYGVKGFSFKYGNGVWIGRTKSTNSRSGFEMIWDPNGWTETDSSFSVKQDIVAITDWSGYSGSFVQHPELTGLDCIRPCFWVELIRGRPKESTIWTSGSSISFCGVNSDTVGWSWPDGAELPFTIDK

In the case of `CC(=O)N[C@H]1[C@H]([C@H](O)[C@H](O)CO)OC(SCCCCCCS)(C(=O)O)C[C@@H]1N` (stereo partly shown) [SA], the IC50 in experiment [1] and in experiment [2] was 60 to 180 µM in each case.
In the case of `CC(=O)N[C@H]1[C@H]([C@H](O)[C@H](O)CO)OC(SCCOCCOCCOCCOCCSC2(C(=O)O)C[C@H](N)[C@@H](NC(C)=O)[C@H]([C@H](O)[C@H](O)CO)O2)(C(=O)O)C[C@@H]1N` (stereo partly shown) [PentaEG-SA], the IC50 in experiment [1] is 1.1 ± 0.1 µM; in experiment [2] it was 10 ± 2 µM.
The matching figures for `CC(=O)N[C@H]1[C@H]([C@H](O)[C@H](O)CO)OC(SCCOCCOCCOCCOCCOCCSC2(C(=O)O)C[C@H](N)[C@@H](NC(C)=O)[C@H]([C@H](O)[C@H](O)CO)O2)(C(=O)O)C[C@@H]1N` (stereo partly shown) [HexaEG-SA]: 0.57 ± 0.06 µM and 11 ± 2 µM.
Turning to `CC(=O)N[C@H]1[C@H]([C@H](O)[C@H](O)CO)OC(SCCCCCCS)(C(=O)O)C[C@@H]1NC(=N)N` (stereo partly shown) [SG], half-maximal inhibition in experiment [1] (IC50) required 0.1 ± 0.02 µM.

In general, IC50 refers to the concentration that inhibits the measured activity by half.

The values above are taken from paper PMC4397911 (Bioorganic & medicinal chemistry letters, 2013).
